Laboratory results taken from article PMC10687169, “Insights into the recognition mechanism in the UBR box of UBR4 for its specific substrates” (Communications Biology, 2023).
Where a SMILES comes first, the peptide text is derived from it.

Target: T1, UBR4^UBR (UBR box of Human UBR4) (Homo sapiens, UniProt Q5T4S7)
T1 construct: UBR box residues 1660-1729 (Methods; Results b12 prints 1669-1729); N-terminal 10His-MBP tag kept for ITC, cut with TEV for crystals; E. coli BL21(DE3) RIL; three zinc ions; crystal 8J9R from YIFS-UBR4 (YIFS fused at N-terminus, LC3B tag removed by ATG4B)
T1 sequence (Q5T4S7 1660-1729): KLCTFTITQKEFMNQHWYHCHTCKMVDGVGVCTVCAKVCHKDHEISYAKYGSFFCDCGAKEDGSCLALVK
Experiment: ITC
Type: binding
Settings: pH 7.5, 200 mM NaCl, 25 °C; 0.225 mM protein, 4.5 mM peptide; 10His-MBP-tagged protein

Compound: CC[C@H](C)[C@H](NC(=O)[C@@H](N)CCCNC(=N)N)C(=O)N[C@@H](Cc1ccccc1)C(=O)N[C@@H](CO)C(=O)O [RIFS] (H-RIFS-OH)
- Kd: 626 ± 29 µM
